Results from patent publication EP4772500A1, “NOVEL ISOXAZOLE COMPOUND AS TM4SF5-SPECIFIC INHIBITOR AND USE THEREOF” (Seoul National University R&DB Foundation, priority 2023, dated 2025).

Assays:
[1] = tested on: C57BL/6 mice on Methionine-Choline Deficient (MCD) diet; assay: MCD diet non-alcoholic steatohepatitis (NASH) mouse model; assay type: in vivo
From the text: Wildtype (WT), Alb-TG^Tm4sf5-Flag, and Tm4sf5^-/- (Tm4sf5 gene-deficient) KO C57BL/6N mice were raised in a pathogen-free room animal facility where temperature and humidity were well controlled. For the experiment to establish the steatohepatitis NASH disease model, 22-week-old mice were used. For the induction of hepatic steatohepatitis through an MCD (TD.90262, Teklad) diet, 6-week-old male mice were randomly divided into normal chow diet (NCD, Purina, Cat # 38057) and MCD groups and allowed free access to the diet for 4 weeks (7 mice per group). When treating with drugs, intraperitoneal injection was performed at a concentration of 5 mg/kg twice a week. After the end of the experiment, liver tissues were obtained and analyzed through methods of H&E, immunohistochemistry tissue staining, Western blot, and qRT-PCR.
Normal 22-week-old C57BL/6 mice were randomly divided into a normal chow diet (NCD) group and a Methionine-Choline Deficient (MCD) diet group, which is a non-alcoholic steatohepatitis (NASH) induction diet, with 3 to 6 mice per group, and were allowed free access to the diets for 4 weeks. Simultaneously, vehicle (DMSO) or ST-2-001 at a concentration of 5 mg/kg was treated twice a week per animal via intraperitoneal injection (IP). After 4 weeks, liver tissues were obtained, and Masson's Trichrome staining showing the accumulation of collagen I (degree of fibrosis) and immunohistochemistry using antibodies against the given factors were performed. Representative images were obtained by randomly scanning the stained liver tissue sections using a digital slide scanner (MoticEasyScan, Motic, British Columbia, Canada). Additionally, tissue extracts were obtained from a portion of the liver tissues to perform Western blotting or qRT-PCR for the given factors, thereby confirming the mRNA and protein expression levels and phosphorylation degrees of signaling factors related to the induction of NASH-fibrosis symptoms and the regulation of T or NK cell activity. Meanwhile, in addition to the animal models, it was intended to confirm whether the expressions of TM4SF5, laminin γ2, and AFP correlate with each other at the hepatocyte level and are regulated by the TM4SF5-specific inhibitor isoxazole compound.

SNU449-TM4SF5 cells = assay: qRT-PCR of cytokines/chemokines, fibrosis and T/NK cell related factors; assay type: cell-based, human; conditions: 2.5 µM, 24 hours, SNU449-TM4SF5 (FIG. 8e-g)
Experimental: After disrupting cells or tissues using Qiazol (Qiagen, USA), chloroform was added thereto, and centrifugation was performed at 12,000x g and 4°C for 15 minutes for phase separation, followed by separating the upper […] layer. After adding isopropanol to the separated […] layer to precipitate RNA, it was washed with 70% ethanol. An RNA pellet was separated by centrifugation at 7,500x g for 5 minutes, and ethanol was evaporated for 10 minutes, followed by solubilization in 30 µl of DEPC-water. The solubilized RNA was reverse-transcribed using a reverse transcription kit (Toyobo, Japan) after removing gDNA to obtain cDNA. For the obtained cDNA, expression was measured by real-time PCR (Bio-Rad, USA) using 2x Eva green master mix (Labopass, Republic of Korea) and 0.4 µM forward/reverse primers. The expression level was calculated using Pfaffl's modified delta-delta Ct method.
Normal 22-week-old C57BL/6 mice were randomly divided into a normal chow diet (NCD) group and a Methionine-Choline Deficient (MCD) diet group, which is a non-alcoholic steatohepatitis (NASH) induction diet, with 3 to 6 mice per group, and were allowed free access to the diets for 4 weeks. Simultaneously, vehicle (DMSO) or ST-2-001 at a concentration of 5 mg/kg was treated twice a week per animal via intraperitoneal injection (IP). […]

Alb-TG^Tm4sf5-Flag mice = assay: DEN-induced liver cancer model in TM4SF5 transgenic animals; assay type: in vivo
Experimental: A liver cancer model was induced in 2-week-old male wild type (WT), Alb-TG^Tm4sf5-Flag [genetically modified animals in which Tm4sf5 expression is excessively regulated by the promoter of the Albumin gene, custom-made by Macrogen Co., Ltd.], or Tm4sf5^-/- KO C57BL/6N male animals by a single intraperitoneal injection (IP injection) of DEN (diethylnitrosamine, Sigma-Aldrich) at a concentration of 25 mg/kg, followed by raising for […]. After the DEN treatment, the animals were raised in a pathogen-free room animal facility where temperature and humidity were well controlled under a normal diet for 40 weeks. During the last 6 weeks, an isoxazole drug (dissolved in 40% DMSO) at the indicated concentration was treated by intraperitoneal injection twice a week. Forty-six weeks after the DEN injection, the animals were sacrificed, and liver tissues were analyzed through methods of tissue staining, Western blot, and qRT-PCR.
In cases where a liver cancer model is induced by treating animals with diethylnitrosamine (DEN), liver cancer formation was induced by a single intraperitoneal injection (IP injection) of DEN into 2-week-old animals, followed by raising them for 46 weeks. […] Thereafter, the animals were sacrificed, and liver tissues were obtained and analyzed. […]

[2] = MCD diet, liver tissue extracts (FIG. 8c)

`COc1ccc(-c2cc(-c3ccc(NC(C)=O)cc3)no2)cc1` [ST-2-001, N-(4-(5-(4-methoxyphenyl)isoxazole-3-yl)phenyl)acetamide] was tested. Which NASH-fibrosis symptoms ([1]; MCD diet, 5 mg/kg IP twice a week, 4 weeks, tissue staining (FIG. 8a)) did it give?
Its NASH-fibrosis symptoms is “clearly inhibited”.

And the “CPT1 (carnitine palmitoyltransferase 1)” value [1, 2]?
The value was “rather increased”.

And the “expressions and levels of fibrosis-related factors, factors related to lipogenesis and steatosis, and cytokines/chemokines related to inflammation” value [1, 2]?
The value was “suppressed”.

What about the “α-Sma, Afp, and Pd-ll expression” value ([1]; MCD diet, liver tissue extracts, Western blotting (FIG. 8b)) of the same molecule?
The value was “decreased”.

And the “mRNA levels for lipogenesis (Acc, Dgat2, Fasn) and activation of Kupffer cells (Trem2, Tim4, Clec4j)” value ([1]; MCD diet, liver tissues, qRT-PCR (FIG. 8d))?
Its value is “inhibited”.

And the “effect on the liver tissue or the expression of the stained factors” value ([1]; NCD (normal chow diet), 5 mg/kg IP twice a week (FIG. 8a))?
The value was “had no effect”.

And the “expression of α-Sma, Afp, Pd-l1” value ([1]; NCD, liver tissue extracts, Western blotting (FIG. 8b))?
The value was “slightly decreased”.

And the “mRNA levels of inflammation-related cytokines/chemokines, liver fibrosis factors, and factors related to T cell or NK cell natural killer activation” value (SNU449-TM4SF5 cells)?
Its value is “inhibited”.

And the cancer formation (Alb-TG^Tm4sf5-Flag mice; DEN 25 mg/kg, drug 5 mg/kg IP twice a week for the final 6 weeks, Alb-TG^Tm4sf5-Flag mice (FIG. 23b))?
Its cancer formation is “minimal or did not occur”.

What about the “mRNA expressions of NK cell activating receptor factors such as SLAMF7, NKG2D, CRTAM, DNAM-1, and CD27” value (Alb-TG^Tm4sf5-Flag mice; qRT-PCR of liver tissues (FIG. 23c)) of the same molecule?
The value was “partially recovered and increased”.
